Laboratory results reported in patent US20190092792A1, “VINORELBINE MONOTARTRATE AND ITS PHARMACEUTICAL USE” (priority 2016, published 2019).
Read-outs that look alike come from different tables or passages of the source.

Key:
[1] = Comparable stressing stability study at 60° C. (total degradation impurities by HPLC); type: physicochemical; conditions: for Total degradation impurities: 60° C.
Description: (§1) The degradation impurities are determined after a specific amount of time of incubation by means of HPLC.
(§2) The term “degradation impurities”, as used herein, is to be understood such a sample of the relevant product is subjected to HPLC analysis and calculation of the content of impurities in Vinorelbine is performed according to the method described in European Pharmacopoeia 7.0.
(§3) HPLC analysis and calculation of the content of impurities in Vinorelbine were performed according to the method described in European Pharmacopoeia 7.0.

[2] = xenon lamp 300-800 nm
Description: The term “photostability”, as used herein, is to be understood such that a sample of the product to be analyzed in a quantity of about 14 mg is placed in a 10 ml light glass volumetric flask and is exposed in a photo chamber to a xenon lamp (wave length 300-800 nm; fluence rate 250-765 W/m2). The amount of the known photo-degradation product 3,6-epoxy vinorelbine is determined after a specific amount of time of exposure by means of HPLC (High-performance liquid chromatography). The described photostability test procedure corresponds to the photostability determining method described in European Pharmacopoeia 7.0 using exposure time 2 hours.
Furthermore, a comparative photo-degradation analysis of crystalline vinorelbine monotartrate hydrate, according to the present invention and vinorelbine bitartrate was performed.
The samples (about 14 mg each) were placed in 10 ml light glass volumetric flasks and exposed in a photo chamber to a xenon lamp (wave length 300-800 nm; fluence rate 250-765 W/m^2). The amount of the known photo-degradation product 3,6-epoxy vinorelbine was determined at various time points by means of HPLC.

[3] = Thermostability of vinorelbine monotartrate solid forms at 5° C., 25° C. and 40° C. (degradation impurities by HPLC); type: physicochemical; conditions: for Degradation products (%) 3,6-epoxy vinorelbine / Degradation products (%) Total / Degradation products (%) vinorelbine N-oxide: amorphous form, 40° C.
Description: as §1, §2
The term “degradation”, as used herein, is to be understood to relate to the total amount of identified (e.g. 3,6-epoxy vinorelbine, 4-O-deacetylvinorelbine and vinorelbine N-oxide) and unidentified degradation products that form in a sample after a particular incubation period.
as §3
Three further representative batches of crystalline vinorelbine monotartrate acetone solvate being produced according to Example 1 were analyzed for stability (i.e. batches no. 011213, no. 021213, and no. 010414). The samples were exposed to temperatures of 5° C. and 25° C. for three and six months, respectively. Batch no. 010414 was also exposed to a temperature of 40° C. (at 60%±2% relative humidity) for 15 days, 1 month, and two months, respectively.
Crystalline vinorelbine monotartrate hydrate being produced according to Example 5 were analyzed for stability. The samples were exposed to temperatures of 25° C. and 40° C. for three and six months, respectively.
In order to evaluate the thermostability and photostability of the compound the sample was exposed to a temperature of 40° C. for 2 weeks analyzed by HPLC.

| Molecule | Total degradation impurities ([1]; 1 week) | Photodegradation product (3,6-epoxy vinorelbine), % ([2]; exposure 0 min) [%] | Total impurities (excluding photodegradation product), % ([2]; exposure 0 min) [%] | Photodegradation product (3,6-epoxy vinorelbine), % ([2]; exposure 15 min) [%] | Total impurities (excluding photodegradation product), % ([2]; exposure 15 min) [%] | Photodegradation product (3,6-epoxy vinorelbine), % ([2]; exposure 30 min) [%] | Total impurities (excluding photodegradation product), % ([2]; exposure 30 min) [%] | Photodegradation product (3,6-epoxy vinorelbine), % ([2]; exposure 60 min) [%] | Total impurities (excluding photodegradation product), % ([2]; exposure 60 min) [%] | Photodegradation product (3,6-epoxy vinorelbine), % ([2]; exposure 120 min) [%] | Total impurities (excluding photodegradation product), % ([2]; exposure 120 min) [%] | also measured |
| --- | --- | --- | --- | --- | --- | --- | --- | --- | --- | --- | --- | --- |
| CCC1=C[C@@H]2CN(C1)Cc1c([nH]c3ccccc13)[C@@](C(=O)OC)(c1cc3c(cc1OC)N(C)[C@H]1[C@@](O)(C(=O)OC)[C@H](OC(C)=O)[C@]4(CC)C=CCN5CC[C@]31[C@@H]54)C2.O=C(O)C(O)C(O)C(=O)O.O=C(O)C(O)C(O)C(=O)O [vinorelbine bitartrate, reference compound] | 9.8% | 0.05 | 0.10 | 0.16 | 0.10 | 0.24 | 0.16 | 0.35 | 0.20 | 0.72 | 0.27 |  |
| vinorelbine monotartrate [amorphous vinorelbine monotartrate] |  |  |  |  |  |  |  |  |  |  |  | Degradation products (%) 3,6-epoxy vinorelbine ([3]; 15 days): 0.13%; Degradation products (%) Total ([3]; 15 days): 1.08%; Degradation products (%) vinorelbine N-oxide ([3]; 15 days): 0.33%; Degradation products (%) 3,6-epoxy vinorelbine ([3]; initial): LT 0.05%; Degradation products (%) Total ([3]; initial): 0.13%; Degradation products (%) vinorelbine N-oxide ([3]; initial): LT 0.05%; stability (in words) ([3]; exposure to elevated temperature and humidity for an extended period): unstable; degradation (in words) ([3]; incubation for two weeks at 40° C.): significant degradation |
| vinorelbine monotartrate acetone solvate | LT 0.05% |  |  |  |  |  |  |  |  |  |  | Total degradation impurities ([1]; 3 weeks): 0.08%; Total degradation impurities ([1]; 8 weeks): 0.24%; chemical degradation (in words) ([1]; one week storage at 60° C.): didn't show any chemical degradation; degradation (in words) ([3]; six months storage at 5° C.+3° C.): almost no degradation; degradation (in words) ([3]; six months storage at 25° C.±2° C.): almost no degradation; degradation (in words) ([3]; two months storage at 40° C.): only minimal degradation |
| vinorelbine monotartrate hydrate |  | 0.03 | 0.10 | 0.08 | 0.10 | 0.14 | 0.10 | 0.28 | 0.10 | 0.44 | 0.17 | thermostability, degradation ([1]; one week storage at 60° C.): less than 0.10%; overall accumulation of degradation impurities ([3]; after 6 months at 25° C.): ≤ 0.02%; overall accumulation of degradation impurities ([3]; after 6 months at 40° C.): ≤ 0.15% |
